Active and inactive are the calls of the source. The rule behind the calls is not given here.
What was measured:
[1] = tested on: Streptococcus mutans; test: Bactericidal activity against Streptococcus mutans ATCC 25175 measured after overnight incubation; format: functional
[2] = tested on: Staphylococcus aureus; test: Antibacterial activity against methicillin-resistant Staphylococcus aureus ATCC 43300 assessed as time delay in bacterial growth at MIC after 10 mins; format: functional
[3] = tested on: Staphylococcus aureus; test: Antibacterial activity against methicillin-resistant Staphylococcus aureus ATCC 43300 assessed as time delay in bacterial growth at 2 times MIC after 10 mins; format: functional
[4] = tested on: Staphylococcus aureus; test: Antibacterial activity against methicillin-resistant Staphylococcus aureus ATCC 43300 assessed as delay in bacterial growth at 4 times MIC after 10 mins; format: functional, organism-based
[5] = tested on: Streptococcus mutans; test: Antibiofilm activity against Streptococcus mutans ATCC 25175 assessed as down-regulation of gtfB gene expression by semi-quantitative PCR analysis; format: functional, organism-based
[6] = tested on: Streptococcus mutans; test: Antibiofilm activity against Streptococcus mutans ATCC 25175 assessed as down-regulation of gtfC gene expression by semi-quantitative PCR analysis; format: functional, organism-based
[7] = tested on: Streptococcus mutans; test: Antibacterial activity against Streptococcus mutans ATCC 25175 measured after overnight incubation by two-fold serial dilution method; format: functional
[8] = tested on: Streptococcus mutans; test: Antibiofilm activity against Streptococcus mutans ATCC 25175 measured after overnight incubation by crystal violet-staining based assay; format: functional
[9] = tested on: Staphylococcus aureus; test: Antibacterial activity against methicillin-resistant Staphylococcus aureus ATCC 43300 measured after overnight incubation by two-fold serial dilution method; format: functional
[10] = tested on: Staphylococcus aureus; test: Bactericidal activity against methicillin-resistant Staphylococcus aureus ATCC 43300 measured after overnight incubation; format: functional
[11] = tested on: Staphylococcus aureus; test: Antibiofilm activity against methicillin-resistant Staphylococcus aureus ATCC 43300 measured after overnight incubation by crystal violet-staining based assay; format: functional
[12] = tested on: Klebsiella pneumoniae; test: Antibacterial activity against Klebsiella pneumoniae ATCC 13882 measured after overnight incubation by two-fold serial dilution method; format: functional
[13] = tested on: Staphylococcus aureus; test: Bacteriostatic activity against methicillin-resistant Staphylococcus aureus ATCC 43300 assessed as log reduction in colony forming units at 12.5 to 15 ug/ml after 24 hrs; format: functional, organism-based
[14] = tested on: Streptococcus mutans; test: Bacteriostatic activity against Streptococcus mutans ATCC 25175 assessed as log reduction in colony forming units at 7.5 to 10 ug/ml after 24 hrs; format: functional, organism-based
[15] = tested on: Staphylococcus aureus; test: Antibacterial activity against methicillin-resistant Staphylococcus aureus ATCC 43300 assessed as inhibition of colony formation at 5 to 20 ug/ml measured after 24 hrs; format: functional, organism-based
[16] = tested on: Streptococcus mutans; test: Antibacterial activity against Streptococcus mutans ATCC 25175 measured assessed as inhibition of colony formation at 5 to 15 ug/ml after 24 hrs; format: functional, organism-based
[17] = tested on: Staphylococcus aureus; test: Antibacterial activity against methicillin-resistant Staphylococcus aureus ATCC 43300 assessed as reduction in bacterial viability at 5 to 20 ug/ml measured after 24 hrs by MTT assay; format: functional
[18] = tested on: Streptococcus mutans; test: Antibacterial activity against Streptococcus mutans ATCC 25175 measured assessed as reduction in bacterial viability at 5 to 15 ug/ml after 24 hrs by MTT assay; format: functional
[19] = tested on: Streptococcus mutans; test: Antibacterial activity against Streptococcus mutans ATCC 25175 assessed as log reduction in bacterial count at 10 ug/ml measured after 24 hrs relative to control; format: functional
[20] = tested on: Staphylococcus aureus; test: Antibacterial activity against methicillin-resistant Staphylococcus aureus ATCC 43300 assessed as log reduction in bacterial count at 5 ug/ml measured after 24 hrs; format: functional
[21] = tested on: Streptococcus mutans; test: Antibiofilm activity against Streptococcus mutans ATCC 25175 assessed as disruption of biofilm at 10 to 12 ug/ml by fluorescence microscopy; format: functional, organism-based
[22] = tested on: Staphylococcus aureus; test: Antibiofilm activity against methicillin-resistant Staphylococcus aureus ATCC 43300 assessed as disruption of biofilm at 10 to 12 ug/ml by fluorescence microscopy; format: functional, organism-based
[23] = tested on: Staphylococcus aureus; test: Antibiofilm activity against methicillin-resistant Staphylococcus aureus ATCC 43300 assessed as formation of oviod cells at MBIC concentration by uranyl acetate-staining based electron microscopy; format: functional, organism-based
[24] = tested on: Staphylococcus aureus; test: Antibiofilm activity against methicillin-resistant Staphylococcus aureus ATCC 43300 assessed as formation of broken chains at MBIC concentration by uranyl acetate-staining based electron microscopy; format: functional, organism-based
[25] = tested on: Staphylococcus aureus; test: Antibacterial activity against methicillin-resistant Staphylococcus aureus ATCC 43300 assessed as reduction in acid production at 0.5 times MIC and MIC measured up to 24 hrs; format: functional, organism-based
[26] = tested on: Streptococcus mutans; test: Antibacterial activity against Streptococcus mutans ATCC 25175 assessed as reduction in acid production at 0.5 times MIC and MIC measured up to 24 hrs; format: functional, organism-based
[27] = tested on: Streptococcus mutans; test: Antibacterial activity against Streptococcus mutans ATCC 25175 assessed as time delay in bacterial growth at MIC, 2 times MIC and 4 times MIC; format: functional
[28] = tested on: Staphylococcus aureus; test: Potency index, ratio of 6 amino penicillinic acid MIC to test compound MIC for methicillin-resistant Staphylococcus aureus ATCC 43300; format: functional
[29] = tested on: Streptococcus mutans; test: Antibiofilm activity against Streptococcus mutans ATCC 25175 assessed as down-regulation of luxS gene expression by semi-quantitative PCR analysis; format: functional, organism-based
[30] = tested on: Staphylococcus aureus; test: Antibiofilm activity against methicillin-resistant Staphylococcus aureus ATCC 43300 assessed as down-regulation of IcaA gene expression by semi-quantitative PCR analysis; format: functional, organism-based
[31] = tested on: Staphylococcus aureus; test: Potency index, ratio of cefixime MIC to test compound MIC for methicillin-resistant Staphylococcus aureus ATCC 43300; format: functional
[32] = tested on: Streptococcus mutans; test: Potency index, ratio of cefixime MIC to test compound MIC for Streptococcus mutans ATCC 25175; format: functional
[33] = tested on: Streptococcus mutans; test: Potency index, ratio of 6 amino penicillinic acid MIC to test compound MIC for Streptococcus mutans ATCC 25175; format: functional
[34] = tested on: Staphylococcus aureus; test: Potency index, ratio of gentamycin sulphate MIC to test compound MIC for methicillin-resistant Staphylococcus aureus ATCC 43300; format: functional

## CC1=CCC[C@@H]2[C@@](C)(CCC3=CC(=O)OC3Nc3ccccc3)[C@H](C)CC[C@@]12C (mixture of isomers)
[1]
  MBC: inactive
[2]
  Time: 1 to 2 h
[3]
  Time: 1 to 2 h
[4]
  Activity: Active
[5]
  Activity: Active
[6]
  Activity: Active
[7]
  MIC: 15 µg/mL
[8]
  Activity: 95.88%
  MBIC: 15 µg/mL
[9]
  MIC: 10 µg/mL
[10]
  MBC: inactive
[11]
  Activity: 96.9%
  MBIC: 10 µg/mL
[12]
  MIC: inactive
[13]
  Activity: Active
[14]
  Activity: Active
[15]
  Activity: Active
[16]
  Activity: Active
[17]
  Activity: <=90%
[18]
  Activity: <=90%
[19]
  Activity: 7.5 - 8 log10CFU/ml
[20]
  Activity: 9.5 log10CFU/ml
[21]
  Activity: Active
[22]
  Activity: Active
[23]
  Activity: Active
[24]
  Activity: Active
[25]
  Activity: Active
[26]
  Activity: Active
[27]
  Time: >=8 hr
[28]
  Ratio: 5
[29]
  Activity: Active
[30]
  Activity: inactive
[31]
  Ratio: 5
[32]
  Ratio: 5
[33]
  Ratio: 5
[34]
  Ratio: 5
